Experimental data published in ChEMBL document CHEMBL1137763, “Cyclobutane-containing peptides: evaluation as novel metallocarboxypeptidase inhibitors and modelling of their mode of action” (Bioorg Med Chem, 2009).

How the values were obtained:
Carboxypeptidase A1 = target: T1, Carboxypeptidase A1 (Bos taurus, UniProt P00730); experiment: Inhibition of bovine pancreatic carboxypeptidase A by microtiter plate method
T1 sequence (P00730 whole entry): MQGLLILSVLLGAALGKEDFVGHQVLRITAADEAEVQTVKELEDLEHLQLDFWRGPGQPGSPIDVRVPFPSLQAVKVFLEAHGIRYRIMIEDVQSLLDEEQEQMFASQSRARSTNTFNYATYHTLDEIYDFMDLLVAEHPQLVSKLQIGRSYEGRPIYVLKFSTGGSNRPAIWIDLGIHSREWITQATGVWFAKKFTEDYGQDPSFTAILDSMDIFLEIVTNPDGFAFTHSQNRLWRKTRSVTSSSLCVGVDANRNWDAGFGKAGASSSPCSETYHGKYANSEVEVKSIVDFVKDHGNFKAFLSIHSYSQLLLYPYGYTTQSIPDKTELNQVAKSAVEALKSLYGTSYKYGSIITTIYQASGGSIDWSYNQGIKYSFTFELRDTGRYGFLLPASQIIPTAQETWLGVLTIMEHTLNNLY

Carboxypeptidase B = target: T2, Carboxypeptidase B (Homo sapiens, UniProt P15086); experiment: Inhibition of human recombinant carboxypeptidase B expressed in Saccharomyces cerevisiae by microtiter plate method
T2 sequence (P15086 whole entry): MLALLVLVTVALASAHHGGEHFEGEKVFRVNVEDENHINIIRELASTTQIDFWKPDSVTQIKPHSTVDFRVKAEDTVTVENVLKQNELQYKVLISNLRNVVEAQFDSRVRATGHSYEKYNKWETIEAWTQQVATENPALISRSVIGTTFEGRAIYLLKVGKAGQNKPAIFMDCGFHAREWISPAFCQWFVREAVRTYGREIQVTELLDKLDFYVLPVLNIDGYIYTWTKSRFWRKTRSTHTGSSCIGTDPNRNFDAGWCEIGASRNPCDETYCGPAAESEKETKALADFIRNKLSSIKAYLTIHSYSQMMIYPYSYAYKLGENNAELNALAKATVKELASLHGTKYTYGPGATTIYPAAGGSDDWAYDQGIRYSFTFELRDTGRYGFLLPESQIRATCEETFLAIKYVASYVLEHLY

| SMILES | Ki (Carboxypeptidase A1) | Ki (Carboxypeptidase B) |
| --- | --- | --- |
| COC(=O)[C@@H]1CC[C@@H]1NC(=O)[C@@H]1CC[C@@H]1NC(=O)OCc1ccccc1 | 95 µM | 275 µM |
| COC(=O)[C@H]1CC[C@H]1NC(=O)[C@H]1CC[C@H]1NC(=O)OCc1ccccc1 | 67 µM | 70 µM |
| O=C(O)CCNC(=O)[C@@H]1CC[C@@H]1NC(=O)OCc1ccccc1 | 70 µM | 43 µM |

Further lines, results first:

| Ki (Carboxypeptidase A1) | Ki (Carboxypeptidase B) | SMILES |
| --- | --- | --- |
| 550 µM | 500 µM | COC(=O)CNC(=O)[C@@H]1CC[C@@H]1NC(=O)OCc1ccccc1 |
| 72.5 µM | 410 µM | COC(=O)CCCCNC(=O)[C@H]1CC[C@H]1NC(=O)OCc1ccccc1 |
| 180 µM | 400 µM | COC(=O)CCNC(=O)[C@@H]1CC[C@@H]1NC(=O)OCc1ccccc1 |
